In series [1] the target is protein kinases (panel of Table 4) (Homo sapiens, UniProt P12931). Nature of the series: Kinase selectivity profile, kinase inhibition IC50 (Table 4), ATP 100 μM. The series is classed as biochemical. As to conditions: kinase Src.
Chain of protein kinases (panel of Table 4) (P12931 whole entry): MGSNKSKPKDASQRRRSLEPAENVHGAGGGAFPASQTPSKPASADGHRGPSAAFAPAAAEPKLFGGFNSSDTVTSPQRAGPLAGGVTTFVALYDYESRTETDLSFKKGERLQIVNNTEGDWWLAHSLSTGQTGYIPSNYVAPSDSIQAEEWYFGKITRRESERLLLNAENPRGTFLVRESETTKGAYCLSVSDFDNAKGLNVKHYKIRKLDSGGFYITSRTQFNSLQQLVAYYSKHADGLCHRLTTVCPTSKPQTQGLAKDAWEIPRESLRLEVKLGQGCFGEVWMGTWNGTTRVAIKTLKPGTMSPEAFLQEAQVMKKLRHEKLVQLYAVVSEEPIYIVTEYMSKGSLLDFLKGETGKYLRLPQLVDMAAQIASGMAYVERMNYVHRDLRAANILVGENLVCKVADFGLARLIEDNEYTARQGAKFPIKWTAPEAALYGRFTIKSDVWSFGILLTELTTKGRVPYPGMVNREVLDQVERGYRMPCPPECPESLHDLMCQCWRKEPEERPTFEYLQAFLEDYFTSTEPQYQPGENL

As to `CNc1nc(C)c(-c2ccnc(Nc3cccc(S(N)(=O)=O)c3)n2)s1` [Compound 19, 3-[4-(4-Methyl-2-methylamino-thiazol-5-yl)-pyrimidin-2-ylamino]-benzenesulfonamide], the midpoint of inhibition in series [1], the IC50, lay at 1200 nM.
`COCCNS(=O)(=O)c1cccc(Nc2nccc(-c3sc(N)nc3C)n2)c1` [Compound 55, 3-[4-(2-Amino-4-methyl-thiazol-5-yl)-pyrimidin-2-ylamino]-N-(2-methoxy-ethyl)-benzenesulfonamide]: the melting point (as a rule, the temperature of the solid-liquid transition) is 179 to 180 °C.
